Laboratory results from patent EP1709964A2, “A method of cosmetic depigmentation care by applying at least one aurone” (ENGELHARD LYON, priority 2005, dated 2006).

biological target: T1, Human tyrosinase (Homo sapiens, UniProt P14679); experiment: Inhibition of human tyrosinase in a monolayer after 24 h application of the actives on normal human melanocytes (MBTH/L-Dopa, OD 490 nm/protein); type: cell-based; conditions: 10^-4M; 24 hours; read-out: Inhibition of human tyrosinase after application on normal human melanocytes, percentage inhibition
T1 construct: Normal human melanocytes (originating from abdominal plasty) are sown in a 24-well plate; endogenous in cells; host or cells: normal human melanocytes from abdominal plasty; donors of light, brown and black phototype
T1 sequence (P14679 19-529): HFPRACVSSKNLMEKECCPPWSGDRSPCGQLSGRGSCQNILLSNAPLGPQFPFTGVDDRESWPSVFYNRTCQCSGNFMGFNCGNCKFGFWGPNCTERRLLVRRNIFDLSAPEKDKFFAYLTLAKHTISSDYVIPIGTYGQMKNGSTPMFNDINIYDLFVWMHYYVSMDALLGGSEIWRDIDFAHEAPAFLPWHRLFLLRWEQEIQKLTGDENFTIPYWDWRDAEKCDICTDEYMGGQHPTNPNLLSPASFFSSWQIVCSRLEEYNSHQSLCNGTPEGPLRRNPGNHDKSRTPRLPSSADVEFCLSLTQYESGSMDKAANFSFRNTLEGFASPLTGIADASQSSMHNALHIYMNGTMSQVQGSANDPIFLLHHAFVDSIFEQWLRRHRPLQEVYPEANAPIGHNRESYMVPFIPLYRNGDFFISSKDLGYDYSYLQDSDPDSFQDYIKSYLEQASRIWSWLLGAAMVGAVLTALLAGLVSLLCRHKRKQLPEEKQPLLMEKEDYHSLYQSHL
Description: Normal human melanocytes (originating from abdominal plasty) are sown in a 24-well plate at the rate of 80,000 cells per well. They are cultivated up to confluence and the actives are applied for 24 hours in the culture media. After 24 hours, the media are removed and the melanocytes are picked up by mechanical action. An extraction is made by heat shock and the supernatants are then recovered and then incubated with MBTH (Sigma) and L-Dopa (Sigma).
The compound obtained in Example 9b was tested on melanocytes originating from various donors but of light phototypes according to the method described in Example 15. […] Table 6 : Inhibition of tyrosinase by compound 9b on 4 different donors.
The compound obtained in Example 9b is tested on cultures of melanocytes originating from 2 donors of brown phototypes and from one donor of negroid phototype. The method applied is that described in Example 15.
A study is made with molecules known in the literature for their depigmenting activity. These molecules are applied to the model described in Example 15 so as to compare their efficiency with respect to the aurones described above.

| Compound | inhibition at 100 µM |
| --- | --- |
| COc1cc(OC)c2c(c1)OCC2=O [Example 4, 4,6-Dimethoxybenzofuran-3(2H)-one] | 0% |
| COc1cc(OC)c2c(c1)O/C(=C\c1ccccc1)C2=O [Example 5, (Z)-2-Benzylidene-4,6-dimethoxybenzofuran-3(2H)-one] | 0% |
| COc1cc(OC)c2c(c1)O/C(=C\c1ccc(O)cc1)C2=O [Example 5a, (Z)-4,6-dimethoxy-2-(4'-hydroxybenzylidene)benzofuran-3(2H)-one] | 14.4% |
| COc1cc(OC)c2c(c1)O/C(=C\c1ccc(SC)cc1)C2=O [Example 5c, (Z)-4,6-dimethoxy-2-(4'-methylthiobenzylidene)benzofuran-3(2H)-one] | 0% |
| COc1cc(OC)c2c(c1)O/C(=C\c1ccc(C#N)cc1)C2=O [Example 5d, (Z)-2-(4-cyanobenzylidene)-4,6-dimethoxybenzofuran-3(2H)-one] | 0% |
| COc1cc(O)c2c(c1)O/C(=C\c1ccc(C#N)cc1)C2=O [Example 6d] | 2.31% |

same assay, conditions: 10^-5M; 24 hours

| Compound | Inhibition of human tyrosinase after application on normal human melanocytes, percentage inhibition |
| --- | --- |
| 4,6-Dihydroxybenzofuran-3(2H)-one (R1 = OH) and 6-Hydroxybenzofuran-3(2H)-one (R1 = H) [Example 2] | 9.69% |

same assay, conditions: 10^-5M; 24 hours; read-out: Inhibition of human tyrosinase after application on normal human melanocytes, percentage inhibition

| Compound | inhibition at 10 µM |
| --- | --- |
| COc1cc(OC)c2c(c1)OCC2=O [Example 4, 4,6-Dimethoxybenzofuran-3(2H)-one] | 0% |
| COc1cc(OC)c2c(c1)O/C(=C\c1ccccc1)C2=O [Example 5, (Z)-2-Benzylidene-4,6-dimethoxybenzofuran-3(2H)-one] | 0% |
| COc1cc(OC)c2c(c1)O/C(=C\c1ccc(O)cc1)C2=O [Example 5a, (Z)-4,6-dimethoxy-2-(4'-hydroxybenzylidene)benzofuran-3(2H)-one] | 27.4% |
| CCc1ccc(/C=C2\Oc3cc(OC)cc(OC)c3C2=O)cc1 [Example 5b, (Z)-4,6-dimethoxy-2-(4'-ethylbenzylidene)benzofuran-3(2H)-one] | 19.4% |
| COc1cc(OC)c2c(c1)O/C(=C\c1ccc(SC)cc1)C2=O [Example 5c, (Z)-4,6-dimethoxy-2-(4'-methylthiobenzylidene)benzofuran-3(2H)-one] | 4.27% |
| COc1cc(OC)c2c(c1)O/C(=C\c1ccc(C#N)cc1)C2=O [Example 5d, (Z)-2-(4-cyanobenzylidene)-4,6-dimethoxybenzofuran-3(2H)-one] | 0% |
| COc1cc(O)c2c(c1)O/C(=C\c1ccccc1)C2=O [Example 6, (Z)-2-Benzylidene-4-hydroxy-6-methoxybenzofuran-3(2H)-one] | 0% |

Other lines, results leading:

| inhibition at 10 µM | Compound |
| --- | --- |
| 14.2% | COc1cc(O)c2c(c1)O/C(=C\c1ccc(SC)cc1)C2=O [Example 6c] |
| 0% | COc1cc(O)c2c(c1)O/C(=C\c1ccc(C#N)cc1)C2=O [Example 6d] |
| 4.52% | CCc1ccc(/C=C2\Oc3cc(O)cc(O)c3C2=O)cc1 [Example 7b] |

tested on: normal human melanocytes; experiment: Cytotoxicity by PNPP determination (percentage viability); type: cell-based; conditions: 10^-4 M; 24 hours at 37°C; with respect to non-treated wells
Description: The cytotoxicity of the actives is studied on normal human melanocytes in a 24-well plate by a determination with PNPP (P-nitrophenyl phosphate), a substance which is converted into p-nitrophenol by the intracellular acid phosphatases of viable cells.
The absorbance of p-nitrophenol at 405 nm is directly proportional to the number of viable cells.
The actives are tested at 2 different concentrations (10^-4 M and 10^-5 M) and are added to the culture medium and are incubated at 37°C for 24 hours. The determination with PNPP is carried out on a cell mat and the results are expressed as a percentage viability with respect to the negative control (non-treated wells). The results obtained are summarized in Table 9 below : Tableau 9 : Percentages viability obtained for the various aurone derivatives on normal human melanocytes (the molecules were tested at 2 concentrations 10^-4 and 10^-5 M.

| Compound | Percentages viability |
| --- | --- |
| 4,6-Dihydroxybenzofuran-3(2H)-one (R1 = OH) and 6-Hydroxybenzofuran-3(2H)-one (R1 = H) [Example 2] | 103.84% |
| COc1cc(OC)c2c(c1)OCC2=O [Example 4, 4,6-Dimethoxybenzofuran-3(2H)-one] | 106.77% |
| COc1cc(OC)c2c(c1)O/C(=C\c1ccccc1)C2=O [Example 5, (Z)-2-Benzylidene-4,6-dimethoxybenzofuran-3(2H)-one] | 83.1% |
| COc1cc(OC)c2c(c1)O/C(=C\c1ccc(O)cc1)C2=O [Example 5a, (Z)-4,6-dimethoxy-2-(4'-hydroxybenzylidene)benzofuran-3(2H)-one] | 104.53% |
| COc1cc(OC)c2c(c1)O/C(=C\c1ccc(SC)cc1)C2=O [Example 5c, (Z)-4,6-dimethoxy-2-(4'-methylthiobenzylidene)benzofuran-3(2H)-one] | 80.08% |
| COc1cc(OC)c2c(c1)O/C(=C\c1ccc(C#N)cc1)C2=O [Example 5d, (Z)-2-(4-cyanobenzylidene)-4,6-dimethoxybenzofuran-3(2H)-one] | 98.93% |
| COc1cc(O)c2c(c1)O/C(=C\c1ccc(C#N)cc1)C2=O [Example 6d] | 85.65% |
| CCc1ccc(/C=C2\Oc3cc(O)cc(O)c3C2=O)cc1 [Example 7b] | 63.52% |

same assay, conditions: 10^-5 M; 24 hours at 37°C; with respect to non-treated wells

| Compound | Percentages viability |
| --- | --- |
| 4,6-Dihydroxybenzofuran-3(2H)-one (R1 = OH) and 6-Hydroxybenzofuran-3(2H)-one (R1 = H) [Example 2] | 126.09% |
| COc1cc(OC)c2c(c1)OCC2=O [Example 4, 4,6-Dimethoxybenzofuran-3(2H)-one] | 85.33% |
| COc1cc(OC)c2c(c1)O/C(=C\c1ccccc1)C2=O [Example 5, (Z)-2-Benzylidene-4,6-dimethoxybenzofuran-3(2H)-one] | 98.55% |
| COc1cc(OC)c2c(c1)O/C(=C\c1ccc(O)cc1)C2=O [Example 5a, (Z)-4,6-dimethoxy-2-(4'-hydroxybenzylidene)benzofuran-3(2H)-one] | 90.87% |
| CCc1ccc(/C=C2\Oc3cc(OC)cc(OC)c3C2=O)cc1 [Example 5b, (Z)-4,6-dimethoxy-2-(4'-ethylbenzylidene)benzofuran-3(2H)-one] | 99.62% |
| COc1cc(OC)c2c(c1)O/C(=C\c1ccc(SC)cc1)C2=O [Example 5c, (Z)-4,6-dimethoxy-2-(4'-methylthiobenzylidene)benzofuran-3(2H)-one] | 136.13% |
| COc1cc(OC)c2c(c1)O/C(=C\c1ccc(C#N)cc1)C2=O [Example 5d, (Z)-2-(4-cyanobenzylidene)-4,6-dimethoxybenzofuran-3(2H)-one] | 96.51% |
| COc1cc(O)c2c(c1)O/C(=C\c1ccccc1)C2=O [Example 6, (Z)-2-Benzylidene-4-hydroxy-6-methoxybenzofuran-3(2H)-one] | 121.56% |
| COc1cc(O)c2c(c1)O/C(=C\c1ccc(SC)cc1)C2=O [Example 6c] | 116.24% |
| COc1cc(O)c2c(c1)O/C(=C\c1ccc(C#N)cc1)C2=O [Example 6d] | 119.36% |
| CCc1ccc(/C=C2\Oc3cc(O)cc(O)c3C2=O)cc1 [Example 7b] | 143.15% |

tested on: tyrosinase from mushroom; experiment: In vitro test of the inhibition of isolated tyrosinase (L-DOPA to dopachrome, OD 490 nm); type: biochemical; conditions: 10^-4M; 490 nm
From the text: Tyrosinase catalyses the formation of L-dopaquinone, and then dopachrome, from L-Dopa. Dopachrome is a colored compound which is quantifiable by visible spectrophotometry at 490 nm. The use of an active which is capable of modifying the enzymatic activity manifests itself by a variation in the optical density at 490nm.
The ratio of the rates of formation of the dopachrome enables the activations or the inhibitions obtained with the various molecules tested to de determined precisely.
The sample to be tested is incubated in the presence of tyrosinase from mushroom (Sigma) for 5 minutes under agitation. L-DOPA (Sigma), substrate of the tyrosinase, is incubated for 10 minutes in the dark in the presence or the absence of the molecules to be tested. The calculation of the percentage inhibition is made by comparing the OD of the test to the OD of the negative control without molecule.
Within the context of this in vitro test, the aurone derivatives were tested at final concentrations of 10^-4M and 10^-5M.

| Compound | Inhibition of tyrosinase from mushroom, percentage inhibition |
| --- | --- |
| COc1cc(OC)c2c(c1)O/C(=C\c1ccccc1)C2=O [Example 5, (Z)-2-Benzylidene-4,6-dimethoxybenzofuran-3(2H)-one] | 0 ± 1.58% |
| COc1cc(OC)c2c(c1)O/C(=C\c1ccc(O)cc1)C2=O [Example 5a, (Z)-4,6-dimethoxy-2-(4'-hydroxybenzylidene)benzofuran-3(2H)-one] | 0 ± 1.33% |
| CCc1ccc(/C=C2\Oc3cc(OC)cc(OC)c3C2=O)cc1 [Example 5b, (Z)-4,6-dimethoxy-2-(4'-ethylbenzylidene)benzofuran-3(2H)-one] | 0 ± 4.21% |
| COc1cc(OC)c2c(c1)O/C(=C\c1ccc(SC)cc1)C2=O [Example 5c, (Z)-4,6-dimethoxy-2-(4'-methylthiobenzylidene)benzofuran-3(2H)-one] | 0 ± 1.64% |
| COc1cc(OC)c2c(c1)O/C(=C\c1ccc(C#N)cc1)C2=O [Example 5d, (Z)-2-(4-cyanobenzylidene)-4,6-dimethoxybenzofuran-3(2H)-one] | 0 ± 2.42% |
| COc1cc(O)c2c(c1)O/C(=C\c1ccccc1)C2=O [Example 6, (Z)-2-Benzylidene-4-hydroxy-6-methoxybenzofuran-3(2H)-one] | 31.22 ± 3.94% |

Next, values leading:

| Inhibition of tyrosinase from mushroom, percentage inhibition | Compound |
| --- | --- |
| 23.65 ± 9.36% | COc1cc(O)c2c(c1)O/C(=C\c1ccc(SC)cc1)C2=O [Example 6c] |
| 0 ± 3.51% | COc1cc(O)c2c(c1)O/C(=C\c1ccc(C#N)cc1)C2=O [Example 6d] |
| 54.57 ± 3.01% | CCc1ccc(/C=C2\Oc3cc(O)cc(O)c3C2=O)cc1 [Example 7b] |

same assay, conditions: 10^-5M; 490 nm

| Compound | Inhibition of tyrosinase from mushroom, percentage inhibition |
| --- | --- |
| COc1cc(OC)c2c(c1)O/C(=C\c1ccccc1)C2=O [Example 5, (Z)-2-Benzylidene-4,6-dimethoxybenzofuran-3(2H)-one] | 0 ± 0.28% |
| COc1cc(OC)c2c(c1)O/C(=C\c1ccc(O)cc1)C2=O [Example 5a, (Z)-4,6-dimethoxy-2-(4'-hydroxybenzylidene)benzofuran-3(2H)-one] | 0 ± 3.90% |
| CCc1ccc(/C=C2\Oc3cc(OC)cc(OC)c3C2=O)cc1 [Example 5b, (Z)-4,6-dimethoxy-2-(4'-ethylbenzylidene)benzofuran-3(2H)-one] | 0 ± 2.5% |
| COc1cc(OC)c2c(c1)O/C(=C\c1ccc(SC)cc1)C2=O [Example 5c, (Z)-4,6-dimethoxy-2-(4'-methylthiobenzylidene)benzofuran-3(2H)-one] | 1.07 ± 4.37% |
| COc1cc(OC)c2c(c1)O/C(=C\c1ccc(C#N)cc1)C2=O [Example 5d, (Z)-2-(4-cyanobenzylidene)-4,6-dimethoxybenzofuran-3(2H)-one] | 0 ± 5.47% |
| COc1cc(O)c2c(c1)O/C(=C\c1ccccc1)C2=O [Example 6, (Z)-2-Benzylidene-4-hydroxy-6-methoxybenzofuran-3(2H)-one] | 0 ± 2.27% |

Second part, the compound after the results:

| Inhibition of tyrosinase from mushroom, percentage inhibition | Compound |
| --- | --- |
| 0 ± 5.84% | COc1cc(O)c2c(c1)O/C(=C\c1ccc(SC)cc1)C2=O [Example 6c] |
| 0 ± 3.94% | COc1cc(O)c2c(c1)O/C(=C\c1ccc(C#N)cc1)C2=O [Example 6d] |
| 14.63 ±6.73% | CCc1ccc(/C=C2\Oc3cc(O)cc(O)c3C2=O)cc1 [Example 7b] |

same assay, conditions: kojic acid at 0.01%

| Compound | inhibition (positive control) |
| --- | --- |
| O=c1cc(CO)occ1O [Kojic acid, kojic acid] | 45% |
